Source: the OPERA property sets (Mansouri et al. 2018)

Conditions: for log10 BCF / log10 biotransformation half-life (days): fish

| SMILES | melting point [°C] | boiling point [°C] | further results |
| --- | --- | --- | --- |
| O=C(NC(=O)c1c(F)cccc1F)Nc1ccc(OC(F)(F)C(F)OC(F)(F)F)c(Cl)c1 (configuration not stated) | 178 |  |  |
| CN(C)c1ccncc1 | 112 |  |  |
| CC(=O)Oc1ccc([N+](=O)[O-])cc1 | 78 |  |  |
| CCCCCCCCCCCCCC(=O)OCc1ccccc1 | 20.5 |  |  |
| CCOCCOCCOC(C)=O | -25 | 218 | log10 vapour pressure (mmHg): -1; ready biodegradability: readily biodegradable |
| Clc1ccccc1I | 0.7 | 234 |  |
| CC1CO1 (configuration not stated) | -112 | 35 | log10 vapour pressure (mmHg): 2.73; ready biodegradability: readily biodegradable |
| CCC(C)N (configuration not stated) | -104 | 62.8 | log10 vapour pressure (mmHg): 2.25; ready biodegradability: readily biodegradable |
| Nc1ccc2cc(S(=O)(=O)O)cc(O)c2c1 |  |  | ready biodegradability: not readily biodegradable; log10 BCF: 0.61 |
| N[C@@H]1CONC1=O | 140 |  |  |
| Cc1cnc2c(ccc3c(C)c(C)cnc32)c1C | 278 |  |  |
| CCOC(=O)CCC(=O)O | 8 |  |  |
| CCCCC(CC)COCCO (configuration not stated) |  | 229 |  |
| Cc1ccc([N+](=O)[O-])c(C)c1 | 9 | 247 | log10 vapour pressure (mmHg): -1.24 |
| C=C(C)Cn1c(N)cc(=O)n(C)c1=O | 175 |  |  |
| CN(C(=O)CN(CCO)CC(=O)N(C)C(C)(C)Cc1ccccc1)C(C)(C)Cc1ccccc1 | 104 |  |  |
| CCCCOC(=O)CCC(=O)O | 8.6 |  |  |
| CCN(CC)C(=O)C(Cl)(Cl)Cl | 27 |  |  |
| CC(=O)Oc1ccccc1C(=O)Oc1ccccc1 | 96 |  |  |
| CC(C)(O)CCc1ccccc1 | 24.5 |  |  |
| CCC(=O)C(C)=O |  | 108 |  |
| COc1ccc2cc1Oc1ccc(cc1)C[C@H]1c3cc(c(OC)cc3CCN1C)Oc1c(OC)c(OC)cc3c1[C@H](C2)N(C)CC3 | 218 |  |  |
| CC(C)c1ccccc1C(C)C | -57 | 204 | log10 vapour pressure (mmHg): -0.441; ready biodegradability: not readily biodegradable; log10 BCF: 2.14 |
| CCOC(=O)[N-]c1c[n+](N2CCOCC2)no1 | 140 |  |  |
| CCc1ccc(C)c(C)c1 | -66.9 | 190 | log10 biodegradation half-life (days): 0.699; log10 vapour pressure (mmHg): -0.126 |

| SMILES | melting point [°C] | boiling point [°C] | further results |
| --- | --- | --- | --- |
| CC(C)(C)C1CCCCC1 | -41.2 | 172 | log10 vapour pressure (mmHg): 0.368 |
| N#Cc1ccccc1Br | 55.5 | 252 |  |
| Nc1cccc2c(O)nnc(O)c12 | 330 |  |  |
| O=[N+]([O-])c1ccc(-c2ccccc2)cc1 | 114 | 340 |  |
| CCC1(c2ccccc2)C(=O)NC(=O)NC1=O | 174 |  | ready biodegradability: not readily biodegradable |
| c1cc2ccc3ccc4ccc5ccc6ccc1c1c2c3c4c5c61 | 437 | 525 | log10 biodegradation half-life (days): 2.87; log10 vapour pressure (mmHg): -11.7 |
| COc1cc(O)c(C(=O)c2ccccc2)cc1S(=O)(=O)O | 145 |  |  |
| CC(C)(C)c1cc(C(C)(C)C)cc(C(C)(C)C)c1 |  |  | ready biodegradability: not readily biodegradable; log10 BCF: 4.36; log10 biotransformation half-life (days): 2.7 |
| O=C(Cl)c1cccc(F)c1 | -30 | 189 |  |
| CC(C)(C)c1nnc(NS(=O)(=O)c2ccccc2)s1 | 163 |  |  |
| COc1nsnc1NS(=O)(=O)c1ccc(N)cc1 | 150 |  |  |
| Nc1cc(-c2ccccc2)ccc1O | 200 |  |  |
| CC(O)=S |  | 93 |  |
| Cc1cnc(C)cn1 | 15 | 155 |  |
| O=C(Nc1cccc2ccccc12)Nc1cccc2ccccc12 | 296 |  |  |
| ClC1(Cl)CCCCC1 | -47 | 171 |  |
| Clc1ccccc1-c1ccc(Cl)c(Cl)c1Cl |  |  | log10 Henry constant (atm·m³/mol): -3.85 |
| C=CCN1CCCC1CNC(=O)c1cc(S(=O)(=O)NC)c(N)cc1OC (configuration not stated) | 169 |  |  |
| FC(F)(F)C(F)(F)C(F)(F)C(F)(F)C(F)(F)C(F)(F)C(F)(F)F | -78 | 82.5 | log10 vapour pressure (mmHg): 1.88 |
| CC(C(=O)O)(c1ccccc1)c1ccccc1 | 176 |  |  |
| CCCCOC(=O)/C=C\C(=O)OCCCC | -85 | 281 | log10 vapour pressure (mmHg): -3.21 |
| C=C(C)C(OC(C)=O)OC(C)=O |  | 191 |  |
| Cl.ClCCN(Cc1ccccc1)Cc1ccccc1 | 192 |  |  |
| CC(=O)n1ccnc1 | 102 |  |  |
| O=[N+]([O-])c1ccc2[nH]nnc2c1 | 217 |  |  |

| SMILES | melting point [°C] | boiling point [°C] | further results |
| --- | --- | --- | --- |
| Clc1ccc(-c2cc(Cl)ccc2Cl)cc1 |  |  | log10 Henry constant (atm·m³/mol): -3.72; log10 Koa: 7.92; log10 vapour pressure (mmHg): -3.4; log10 BCF: 4.13; log10 biotransformation half-life (days): 1.91 |
| CCCC(C)(C)CC(C)C |  | 151 |  |
| ON=Cc1ccncc1 | 132 |  |  |
| Clc1ccc2c(Cl)c(Cl)ccc2c1 |  |  | log10 Koa: 7.5 |
| C=CCOCCC |  | 91 | log10 vapour pressure (mmHg): 1.78 |
| Cc1ccc2[nH]nnc2c1 | 81 |  |  |
| COC(OC)OC |  | 104 |  |
| Cc1ccc(C#N)c(=O)[nH]1 |  |  | ready biodegradability: readily biodegradable |
| c1ccc2c(Oc3cccc4ccccc34)cccc2c1 | 110 |  |  |
| Cc1cc([N+](=O)[O-])c(N)c([N+](=O)[O-])c1 | 172 |  |  |
| OCCCOCCCO |  |  | ready biodegradability: not readily biodegradable |
| CC(CC(C)(C)C)CC(C)(C)CC(C)(C)C (configuration not stated) |  |  | ready biodegradability: not readily biodegradable; log10 BCF: 3.82; log10 biotransformation half-life (days): 1.81 |
| CCCCCCC=O | -43.3 | 153 | log10 Henry constant (atm·m³/mol): -3.57; log10 vapour pressure (mmHg): 0.546 |
| O=C1OCCO1 | 39.5 | 248 | log10 vapour pressure (mmHg): -2.01; ready biodegradability: readily biodegradable |
| COc1cc2c(cc1OC)[C@]1(O)C(=O)c3ccc4c(c3O[C@@H]1CO2)C=CC(C)(C)O4 | 198 |  |  |
| Clc1cc2oc3c(Cl)c(Cl)ccc3c2cc1Cl | 195 |  | log10 vapour pressure (mmHg): -7.68; log10 BCF: 2.72 |
| Cc1ncc(COP(=O)(O)O)c(C=O)c1O.O | 142 |  |  |
| CCC#CC(C)C | -117 | 95.2 |  |
| CC(=O)OCCN(CCOC(C)=O)c1ccc(N=Nc2nc3ccc(Cl)cc3s2)c(NC(=O)c2ccccc2)c1 |  |  | ready biodegradability: not readily biodegradable |
| Cc1c(Cl)cccc1Nc1ncccc1C(=O)O | 234 |  |  |
| CN(C)C(=O)Nc1cccc(F)c1 |  |  | log10 Koc (L/kg): 1.73 |
| N#CCCO | -46 | 221 | log10 vapour pressure (mmHg): -1.1 |
| O=C(O)Cc1cccnc1 | 144 |  |  |
| Cc1[nH]nc(Cl)c1[N+](=O)[O-] | 111 |  |  |
| C=C(C)CC1(CC)C(=O)NC(=S)NC1=O | 160 |  |  |

| SMILES | melting point [°C] | boiling point [°C] | further results |
| --- | --- | --- | --- |
| O=C1CCC(c2ccccc2)O1 (configuration not stated) | 36.5 | 306 |  |
| CCCCC(CC)COC(=O)CC(C(=O)OCC(CC)CCCC)S(=O)(=O)[O-].[Na+] (configuration not stated) | 176 |  |  |
| CC(C)(C)c1cc(O)c(C(C)(C)C)cc1O | 218 |  |  |
| CC1(C)[C@@H]2CC[C@@](C)(C2)[C@@H]1O | 45.8 |  |  |
| O=C(O)c1cccc([N+](=O)[O-])c1C(=O)O |  |  | ready biodegradability: not readily biodegradable; log10 BCF: 0.72; log10 biotransformation half-life (days): -1.57 |
| COc1ccc(O[C@@H]2O[C@H](CO)[C@H](O)[C@H](O)[C@H]2O)cc1 | 159 |  |  |
| FC(F)(F)CC(F)(F)F | -94.2 | -1.1 |  |
| CC(C)C1CCC(C(C)C)CC1 (configuration not stated) |  |  | log10 biotransformation half-life (days): 0.97 |
| CCCOC(=O)NCCCN(C)C |  |  | log10 Henry constant (atm·m³/mol): -8.83; log10 Koc (L/kg): 2.49; log10 vapour pressure (mmHg): -1.26 |
| CC(=O)O[Si](C)(OC(C)=O)OC(C)=O | 40.5 |  |  |
| CCOC(=O)C(OCC)OCC |  | 199 |  |
| CC(COc1ccc(Oc2ccccc2)cc1)Oc1ccccn1 (configuration not stated) | 46 |  | log10 vapour pressure (mmHg): -5.66 |
| CCOC(=O)NCc1ccccc1 | 49 | 230 |  |
| CCCCCCOc1ccccc1 | -19 | 240 |  |
| O=c1[nH]ncc2ccccc12 | 188 |  |  |
| C(=NC1CCCCC1)=NC1CCCCC1 | 34.5 |  | ready biodegradability: not readily biodegradable |
| CCCC[Si]1(C)O[Si](C)(CCCC)O[Si](C)(CCCC)O[Si](C)(CCCC)O1 (configuration not stated) |  | 291 |  |
| COC(=O)C1(S(=O)(=O)c2ccc(C)cc2)CC1 | 97.2 |  |  |
| CC[C@H]1CN2CC[C@]3(C(=O)Nc4ccccc43)[C@@H]2C[C@@H]1/C(=C\OC)C(=O)OC | 216 |  |  |
| COc1cccc(S)c1 |  | 224 |  |
| COc1cccc(C=O)c1O | 44.5 | 266 |  |
| COC(=O)c1cc(OC)c(OC)c(OC)c1 | 83 | 274 |  |
| CC=CCC(C)=O |  | 127 |  |
| COc1c(C)c2c(c(O)c1C/C=C(\C)CCC(=O)O)C(=O)OC2 | 141 |  |  |
| O=C(O)Cc1cccc(Cl)c1 | 78.8 |  |  |

| SMILES | melting point [°C] | boiling point [°C] | further results |
| --- | --- | --- | --- |
| Cc1ccc(C(C)C)c(O)c1C(=O)O | 127 |  |  |
| CC[N+](CC)(CC)CCOC(=O)C(C1CCCC1)C1CCCC1.[Br-] | 186 |  |  |
| COc1ccc(OC)c(C=O)c1 | 52 | 270 |  |
| CNC1CCCCC1 |  | 147 |  |
| CCCCCCCCC#N | -34.2 | 224 | ready biodegradability: readily biodegradable |
| O=C1c2ccccc2C(=O)C1c1nc2ccccc2c(Br)c1O |  |  | ready biodegradability: not readily biodegradable; log10 BCF: 1.14 |
| O=C(O)[C@H](O)[C@@H](O)[C@H](O)[C@H](O)C(O)CO (some centres not stated) | 146 |  |  |
| Cn1c2ccccc2c2ccccc21 | 89.3 |  |  |
| Sc1ccccc1S | 28.5 | 238 |  |
| CC=C(CC)CC |  | 96 | log10 vapour pressure (mmHg): 1.72 |
| CCOC(=O)COC |  | 142 |  |
| CN(C)CCN1C(=O)c2ccccc2Nc2cc(Cl)ccc21 | 166 |  |  |
| Cc1ccccc1OC(=O)Oc1ccccc1C | 60 |  |  |
| CC(O)C1CCCCC1 (configuration not stated) |  | 189 |  |
| Fc1ccc(F)c(F)c1F | -42 | 94.3 | log10 vapour pressure (mmHg): 1.69 |
| COC(C)CO (configuration not stated) |  | 130 |  |
| CCc1cccc([N+](=O)[O-])c1 | -37.9 | 242 |  |
| Oc1ccc2cc(Cl)ccc2c1 | 116 |  |  |
| CC(=O)CCC(C)=O | -5.5 | 194 |  |
| CCc1cccc(C)c1N(COC(C)C)C(=O)CCl | 21.6 |  | log10 vapour pressure (mmHg): -4.52 |
| Fc1ccc(F)cc1 | -13 | 89 | log10 vapour pressure (mmHg): 1.81 |
| CNC(=O)c1ccccc1 | 82 | 291 | log10 Koc (L/kg): 1.68 |
| Cc1cccc2c1ccc1cc(C(C)C)ccc12 | 101 | 390 |  |
| CS(=O)(=O)Cl |  | 162 |  |
